Assay results as given in article PMC10447463, “Data-mining unveils structure–property–activity correlation of viral infectivity enhancing self-assembling peptides” (Nature Communications, 2023).

System: HIV-1 infection of TZM-bl cells
Test: HIV-1 infectivity enhancement assay, β-galactosidase luminescence
Format: cell-based
Details: input.xlsx of the Pattern-Analysis script; infectivity relative to EF-C (peptide 59 = 1.00)

| Substance | infectivity |
| --- | --- |
| KIKIQINMWQRGD [compound 161] | 0.0121 |
| KIKIQINMAQ [compound 83] | 0.21 |
| KLKQLL [compound 95] | 0.00739 |
| KKFQKKFQ [compound 37] | 0.0285 |
| KFKQFFINMWQ [compound 158] | 0.92 |
| CRFRFQF [compound 28] | 0.34 |
| KWKWQW [compound 93] | 0.0145 |
| KVKGVGK [compound 43] | 0.0259 |
| KFKFQFNMWQ [compound 67] | 0.76 |
| NMWQKVGTPL [compound 70] | 0.0247 |
| ILKNLSRSRKIKIQINMWQ [compound 154] | 0.32 |
| CKIW [compound 152] | 0.05 |
| MDQMDQMDQMDQMDQ [compound 39] | 0.00427 |
| HHHHKIKIQINMYYYY [compound 138] | 1.11 |
| CSISIQI [compound 132] | 0.0559 |
| QCKAKAQANMWQ [compound 19] | 0.07 |
| KIKIQIC [compound 125] | 0.61 |
| CKIKIQINMWQ [compound 96] | 0.70 |
| KIKQIINMWQ [compound 65] | 0.35 |
| KIKIKIKIYYYY [compound 86] | 1.38 |
| KIKIQINMW [compound 75] | 2.16 |
| NMWQKFKFQF [compound 63] | 0.27 |
| CKIKIQIII [compound 1] | 0.98 |
| KIKIQIAMWQ [compound 85] | 0.39 |
| QCKIKIQINMWQ [compound 60] | 1.04 |
| KIKIQINMWA [compound 81] | 0.69 |

| Substance | infectivity |
| --- | --- |
| QCKAKAQA [compound 21] | 0.0253 |
| KIKQIIN [compound 74] | 0.04 |
| KIKIQIII [compound 122] | 0.35 |
| KVKVQVV [compound 119] | 0.00912 |
| KFKFQFF [compound 121] | 0.12 |
| KFKFQFFF [compound 114] | 0.40 |
| CKFKQFF [compound 17] | 0.00675 |
| FKFDKFKFDK [compound 42] | 0.0464 |
| CEIEIQINMWQ [compound 133] | 0.22 |
| CRFRVPF [compound 55] | 0.02 |
| KIKIQIRGD [compound 102] | 0.02 |
| RGDCKFKFQF [compound 145] | 0.15 |
| EIEIEIEI [compound 82] | 0.0178 |
| RGDKIRGDKI [compound 51] | 0.00748 |
| CKFKFQFNMW [compound 91] | 0.96 |
| CKWKWQW [compound 94] | 0.25 |
| KFKFQF [compound 80] | 0.06 |
| EIEIQINMWQ [compound 162] | 0.13 |
| KFKFQFNMW [compound 7] | 0.45 |
| QCKIKQII [compound 24] | 0.00647 |
| HHHHKIKIKIKIWWWW [compound 140] | 0.38 |
| HGDKCHGDKC [compound 35] | 0.01 |
| CKAKAQANMWQ [compound 10] | 0.0437 |
| NMWQKIKIQI [compound 72] | 0.21 |
| QCKFKQFFNM [compound 13] | 0.43 |
| CKIKIQINMW [compound 153] | 1.29 |

| Substance | infectivity |
| --- | --- |
| QCKAKAQANM [compound 20] | 0.0146 |
| HRRHFRHKITKKK [compound 45] | 0.0136 |
| KNDKND [compound 52] | 0.0105 |
| QCKFKQFF [compound 14] | 0.0124 |
| KIKIKIQINMWQ [compound 163] | 0.79 |
| CKFKFQFNM [compound 5] | 1.24 |
| KFKFQFNM [compound 8] | 0.47 |
| KAKQAANMWQ [compound 69] | 0.03 |
| KIKIQI [compound 79] | 0.07 |
| KFKFQFW [compound 147] | 0.16 |
| RLRLTLC [compound 30] | 0.05 |
| KAKAQANMWQ [compound 66] | 0.00715 |
| QCKIKIQINM [compound 18] | 0.40 |
| KIKIKIQI [compound 115] | 0.10 |
| KFKFQFN [compound 9] | 0.018 |
| CSISIQINM [compound 135] | 0.20 |
| RGDKIKIQI [compound 97] | 0.0157 |
| CKFKQFFNM [compound 16] | 0.41 |
| NMWQKIKQII [compound 71] | 0.0253 |
| PPFHPPPFHP [compound 38] | 0.0177 |
| CKIKIQI [compound 99] | 1.02 |
| CHLHLQL [compound 56] | 0.10 |
| CKFKFQFNMWQ [compound 4] | 1.16 |
| ILKNLSRSRKIKIQIC [compound 128] | 0.34 |
| KAKAKAQA [compound 116] | 0.00871 |
| CEIEIQINM [compound 134] | 0.0651 |

| Substance | infectivity |
| --- | --- |
| CKIKQIIRGD [compound 110] | 0.05 |
| QCKIKIQI [compound 22] | 0.11 |
| EFEFQF [compound 89] | 0.00327 |
| QCKIKQIINM [compound 23] | 0.35 |
| KIKIQINAWQ [compound 84] | 0.54 |
| RGDSGGGGGGKIKIQIC [compound 127] | 0.87 |
| KVKVQVVV [compound 123] | 0.0351 |
| CKIKQIINM [compound 3] | 0.50 |
| MKIKIQINM [compound 141] | 0.27 |
| KYKYQY [compound 88] | 0.01 |
| FDPFDPFDP [compound 40] | 0.0234 |
| KIKIKIKIWWWW [compound 129] | 0.59 |
| KAKAQANM [compound 136] | 0.009 |
| KIKIQIMWNQ [compound 159] | 0.56 |
| EIKIQINM [compound 149] | 0.10 |
| CKIKQII [compound 100] | 0.04 |
| CKFKFQFW [compound 148] | 0.88 |
| KIEIQINM [compound 108] | 0.0348 |
| CEFEFQFNMWQ [compound 131] | 0.14 |
| RGDKIKIQINM [compound 104] | 0.41 |
| CKYKYQY [compound 92] | 0.04 |
| RGDSKIKIQIC [compound 126] | 0.60 |
| CKFQC [compound 48] | 0.0227 |
| HGEHGEHGE [compound 54] | 0.019 |
| CKIKIQIRGD [compound 109] | 0.33 |
| HHHHKIKIKIKIYYYY [compound 144] | 0.68 |

| Substance | infectivity |
| --- | --- |
| KIRGKFEKED [compound 47] | 0.06 |
| KLKLQLL [compound 120] | 0.00698 |
| QCKFKFQFNM [compound 26] | 0.51 |
| KIKIQINMWWQ [compound 156] | 3.21 |
| RGECKFKFQF [compound 32] | 0.33 |
| KNERIKNERI [compound 46] | 0.013 |
| RGDKIKIQINMC [compound 111] | 1.07 |
| RGDKIKIQIC [compound 103] | 0.83 |
| HLHLPLL [compound 31] | 0.01 |
| KIKIQINM [compound 76] | 0.36 |
| CKFKFQF [compound 6] | 1.23 |
| QCKFKFQFNMWQ [compound 25] | 0.62 |
| HHHHKAKAKAKAWWWW [compound 151] | 0.09 |
| KIKIQIMQWN [compound 160] | 0.72 |
| SISISRRI [compound 44] | 0.0283 |
| KIKIKIKI [compound 130] | 0.0326 |
| CKIKIQINM [compound 98] | 1.59 |
| MKFKFQF [compound 58] | 0.0637 |
| TKTLTKTL [compound 41] | 0.0213 |
| RGDCKIKIQINM [compound 142] | 0.24 |
| CETMYDKILKNLSRSR [compound 57] | 0.02 |
| HGEHGE [compound 53] | 0.00641 |
| KAKAQA [compound 78] | 0.0181 |
| CKFKQFFNMWQ [compound 15] | 0.61 |
| CKIKQIINMWQ [compound 101] | 1.24 |
| CKAKAQA [compound 137] | 0.03 |

| Substance | infectivity |
| --- | --- |
| CKFC [compound 50] | 0.011 |
| HIHIQIC [compound 29] | 0.27 |
| RPRGLLLGNLR [compound 36] | 0.05 |
| KFKQFFNMWQ [compound 68] | 0.09 |
| HHHHEIEIEIEI [compound 87] | 0.03 |
| KIKIQIN [compound 77] | 0.27 |
| QCKIKQIINMWQ [compound 59] | 1.00 |
| KIKQII [compound 107] | 0.00492 |
| CEFEFQF [compound 90] | 0.00521 |
| KIKIQINMWWWQ [compound 157] | 2.75 |
| KVKVKVQV [compound 64] | 0.0173 |
| KIKIQII [compound 113] | 0.0187 |
| QCKFKFQF [compound 27] | 0.77 |
| IKVAVKIKIQINM [compound 150] | 0.50 |
| EIEIQINM [compound 155] | 0.0363 |
| MKFM [compound 49] | 0.0175 |
| KFKFEFEF [compound 106] | 0.0284 |
| RGDKIKIQINMWQ [compound 105] | 0.76 |
| NMWQKAKAQA [compound 62] | 0.04 |
| HHHHKAKAKAKAYYYY [compound 124] | 0.0131 |
| KIKIQINMWQ [compound 61] | 0.30 |
| KYKGAIIGNIK [compound 34] | 0.0031 |
